The results in this text go back to patent US11787810B2, “Diacylglyceride O-acyltransferase 2 inhibitors” (Merck Sharp & Dohme Corp., priority 2020, dated 2023).

The structures appear in SMILES notation.

Sequence of human DGAT2 (hDGAT2) (Q96PD7 whole entry): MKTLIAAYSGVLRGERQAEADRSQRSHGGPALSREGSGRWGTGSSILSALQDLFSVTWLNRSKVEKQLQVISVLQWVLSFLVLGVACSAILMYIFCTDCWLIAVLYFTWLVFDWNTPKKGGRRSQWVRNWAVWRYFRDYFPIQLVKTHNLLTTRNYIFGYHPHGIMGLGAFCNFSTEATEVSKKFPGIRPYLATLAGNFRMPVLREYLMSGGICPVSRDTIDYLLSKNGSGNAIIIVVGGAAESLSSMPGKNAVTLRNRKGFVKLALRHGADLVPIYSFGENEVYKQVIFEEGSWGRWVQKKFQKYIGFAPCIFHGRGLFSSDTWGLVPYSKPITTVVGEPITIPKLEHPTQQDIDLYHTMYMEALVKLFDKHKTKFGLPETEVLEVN

In the test the target is human DGAT2 (hDGAT2) (Homo sapiens (Human), UniProt Q96PD7). Nature of the test: DGAT2 enzymatic activity assay (13C18-triolein formation, LC/MS/MS). In kind it is biochemical. The following applies: hDGAT2 Sf-9 membrane prep, 25 μM diolein, 5 μM 13C oleoyl-CoA; read-out: Human DGAT2 IC50. In short, it runs like this:
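Membranes from Sf-9 cells expressing untagged human DGAT2 (8 ng/μL) incubated at rt with 25 μM diolein and 5 μM 13C oleoyl-CoA in pH 7.0 Tris buffer, 20 mM MgCl2, 5% ethanol. 13C18-triolein quantified by LC/MS/MS against 13C21-triolein internal standard; IC50 from 4-parameter sigmoidal fit.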
On to `COC1(c2cccc(-c3nn(C(C)C)c4cc(C(=O)NC5(C)CS(=O)(=O)C5)cnc34)c2)CC1` [Example 128, 1-isopropyl-3-(3-(1-methoxycyclopropyl)phenyl)-N-(3-methyl-1,1-dioxidothietan-3-yl)-1H-pyrazolo[4,3-b]pyridine-6-carboxamide], for which the IC50 (commonly the concentration needed to halve the response being measured) is 5450 nM. The result for `CC1(NC(=O)c2cnc3c(-c4cccc(OC(F)F)c4)nn(C(C)(C)C(C)(C)O)c3c2)CS(=O)(=O)C1` [Example 129, 3-(3-(difluoromethoxy)phenyl)-1-(3-hydroxy-2,3-dimethylbutan-2-yl)-N-(3-methyl-1,1-dioxidothietan-3-yl)-1H-pyrazolo[4,3-b]pyridine-6-carboxamide] reads 97 nM; that for `CN1CCC(n2nc(-c3cccc(OC(F)F)c3)c3ncc(C(=O)NC4(C)CS(=O)(=O)C4)cc32)CC1` [Example 134, 3-(3-(Difluoromethoxy)phenyl)-N-(3-methyl-1,1-dioxidothietan-3-yl)-1-(1-methylpiperidin-4-yl)-1H-pyrazolo[4,3-b]pyridine-6-carboxamide], 33 nM.
